± gives the expanded uncertainty stated by the source. Blank lines part the entries; values can stand above or below the compound they belong to.
Test: mn = molality of the nth substance listed, in mol/kg
Details: 298.15 K, 101 kPa, Liquid

SMILES: NCC(=O)NCC(=O)O [glycylglycine] + O
- mass density (m1 = 0.02426): 998.39 ± 0.49 kg/m3
- mass density (m1 = 0.05026): 999.84 ± 0.48 kg/m3
- mass density (m1 = 0.07538): 1001.22 ± 0.49 kg/m3
- mass density (m1 = 0.0999): 1002.54 ± 0.49 kg/m3
- mass density (m1 = 0.1253): 1003.95 ± 0.49 kg/m3
- mass density (m1 = 0.1482): 1005.2 ± 0.5 kg/m3
- mass density (m1 = 0.1746): 1006.63 ± 0.5 kg/m3
- mass density (m1 = 0.1974): 1007.84 ± 0.51 kg/m3

SMILES: NCC(=O)O [2-aminoacetic acid] + O
- mass density (m1 = 0.0988): 1000.19 ± 0.48 kg/m3
- mass density (m1 = 0.1509): 1001.82 ± 0.49 kg/m3
- mass density (m1 = 0.2033): 1003.44 ± 0.49 kg/m3
- mass density (m1 = 0.2463): 1004.78 ± 0.49 kg/m3
- mass density (m1 = 0.2996): 1006.4 ± 0.5 kg/m3
- mass density (m1 = 0.3513): 1007.96 ± 0.5 kg/m3
- mass density (m1 = 0.4037): 1009.55 ± 0.51 kg/m3
- mass density (m1 = 0.4497): 1010.94 ± 0.51 kg/m3

SMILES: C[C@H](N)C(=O)O [(S)-2-aminopropanoic acid] + O
- mass density (m1 = 0.1065): 1000.07 ± 0.48 kg/m3
- mass density (m1 = 0.1518): 1001.34 ± 0.48 kg/m3
- mass density (m1 = 0.2006): 1002.71 ± 0.49 kg/m3
- mass density (m1 = 0.2568): 1004.27 ± 0.49 kg/m3
- mass density (m1 = 0.3059): 1005.52 ± 0.5 kg/m3
- mass density (m1 = 0.359): 1007.03 ± 0.5 kg/m3
- mass density (m1 = 0.4066): 1008.35 ± 0.5 kg/m3
- mass density (m1 = 0.4555): 1009.54 ± 0.51 kg/m3

Other lines, results leading:

- mass density (m1 = 0.02223): 998.29 ± 0.49 kg/m3
- mass density (m1 = 0.04995): 999.84 ± 0.48 kg/m3
- mass density (m1 = 0.07431): 1001.19 ± 0.49 kg/m3
- mass density (m1 = 0.099): 1002.56 ± 0.49 kg/m3
- mass density (m1 = 0.1232): 1003.87 ± 0.49 kg/m3
- mass density (m1 = 0.1428): 1004.92 ± 0.5 kg/m3
- mass density (m1 = 0.1834): 1007.13 ± 0.5 kg/m3
- mass density (m1 = 0.2013): 1008.08 ± 0.51 kg/m3
SMILES: N[C@@H](Cc1c[nH]cn1)C(=O)O [L-histidine] + O

- mass density (m1 = 0.0246): 998.08 ± 0.49 kg/m3
- mass density (m1 = 0.0494): 999.12 ± 0.48 kg/m3
- mass density (m1 = 0.07575): 1000.22 ± 0.48 kg/m3
- mass density (m1 = 0.1002): 1001.23 ± 0.48 kg/m3
- mass density (m1 = 0.1256): 1002.28 ± 0.49 kg/m3
- mass density (m1 = 0.1499): 1003.28 ± 0.49 kg/m3
- mass density (m1 = 0.1751): 1004.31 ± 0.49 kg/m3
- mass density (m1 = 0.2001): 1005.33 ± 0.5 kg/m3
SMILES: C[C@@H](O)[C@H](N)C(=O)O [DL-threonine] + O

- mass density (m1 = 0.02628): 998.22 ± 0.49 kg/m3
- mass density (m1 = 0.04948): 999.26 ± 0.48 kg/m3
- mass density (m1 = 0.07419): 1000.35 ± 0.48 kg/m3
- mass density (m1 = 0.1008): 1001.52 ± 0.49 kg/m3
- mass density (m1 = 0.1252): 1002.6 ± 0.49 kg/m3
- mass density (m1 = 0.1509): 1003.72 ± 0.49 kg/m3
- mass density (m1 = 0.1753): 1004.76 ± 0.5 kg/m3
- mass density (m1 = 0.2009): 1005.86 ± 0.5 kg/m3
SMILES: NC(CO)C(=O)O (stereo not drawn) [(.+-.)-serine] + O

Reference: the NIST ThermoML archive (doi:10.1016/j.jct.2005.03.015)
